Experiments:
RPMI-8226 = assay: NCI 60 antitumor screening (single dose / five doses); assay type: cell-based; settings: Homo sapiens; RPMI-8226 (leukaemia), single dose 10 μM; read-out: Growth inhibition percentage (GI %)
SF-539 = assay: as above; assay type: cell-based; settings: Homo sapiens; SF-539 (CNS cancer), single dose 10 μM; read-out: Growth inhibition percentage (GI %)
BT-549 = assay: as above; assay type: cell-based; settings: Homo sapiens; BT-549 (breast cancer), single dose 10 μM; read-out: Growth inhibition percentage (GI %)
HL-60(TB) = assay: as above; assay type: cell-based; settings: Homo sapiens; HL-60(TB) (leukaemia), single dose 10 μM; read-out: Growth inhibition percentage (GI %)
MOLT-4 = assay: as above; assay type: cell-based; settings: Homo sapiens; MOLT-4 (leukaemia), single dose 10 μM; read-out: Growth inhibition percentage (GI %)
UACC-62 = assay: as above; assay type: cell-based; settings: Homo sapiens; UACC-62 (melanoma), single dose 10 μM; read-out: Growth inhibition percentage (GI %)
UACC-257 = assay: as above; assay type: cell-based; settings: Homo sapiens; UACC-257 (melanoma), single dose 10 μM; read-out: Growth inhibition percentage (GI %)
ACHN = assay: as above; assay type: cell-based; settings: Homo sapiens; ACHN (renal cancer), single dose 10 μM; read-out: Growth inhibition percentage (GI %)
T-47D = assay: as above; assay type: cell-based; settings: Homo sapiens, T47D; T-47D (breast cancer), single dose 10 μM; read-out: Growth inhibition percentage (GI %)
MALME-3M = assay: as above; assay type: cell-based; settings: Homo sapiens; MALME-3M (melanoma), single dose 10 μM; read-out: Growth inhibition percentage (GI %)
786-0 = assay: as above; assay type: cell-based; settings: Homo sapiens, 786-0, 786-0 (renal cancer), single dose 10 μM; read-out: Growth inhibition percentage (GI %)
SNB-75 = assay: as above; assay type: cell-based; settings: Homo sapiens; SNB-75 (CNS cancer), single dose 10 μM; read-out: Growth inhibition percentage (GI %)
MDA-MB-231/ATCC = assay: as above; assay type: cell-based; settings: Homo sapiens; MDA-MB-231/ATCC (breast cancer), single dose 10 μM; read-out: Growth inhibition percentage (GI %)
SN 12C = assay: as above; assay type: cell-based; settings: Homo sapiens, SN12C; SN 12C (renal cancer), single dose 10 μM; read-out: Growth inhibition percentage (GI %)
LOX IMVI = assay: as above; assay type: cell-based; settings: Homo sapiens; LOX IMVI (melanoma), single dose 10 μM; read-out: Growth inhibition percentage (GI %)
NCI/ADR-RES = assay: as above; assay type: cell-based; settings: Homo sapiens; NCI/ADR-RES (ovarian cancer), single dose 10 μM; read-out: Growth inhibition percentage (GI %)
[1] = test system: 60 human subpanel cancer cell lines; assay: NCI 60 antitumor screening, mean over the panel (single dose); assay type: cell-based; settings: mean over 60 cancer cell lines, single dose 10 μM
Protocol: (§1) Initially, the anticancer effects of target compounds have been assessed at a single (10 μM) dose. The obtained data have been reported as mean-graph of the percent growth (G%) of the treated cancer cells. Percentage growth inhibition (GI%) is calculated (100 − G%) and pronounced in Table 1. […] Target compounds in series (III) with manipulated linkers disclosed lower potency. Superiorly, eight s-triazine derivatives from the three series (6a, 6c, 6d, 7a, 7g, 7i, 7l, and 8b) have shown potent broad-spectrum anticancer activity against most the examined cell lines, whereas most of the remaining triazine derivatives, 20 derivatives, have exerted selective anti-proliferative actions towards certain cancer cell lines (Supplementary).
(§2) The antitumor screening was performed for 60 human cancer cell lines under the protocol of NCI (www.dtp.nci.nih.gov), the Drug Evaluation Branch, Bethesda, MD. All submitted compounds were nominated based on the degree of structural diversity and computer modelling techniques for evaluation of their anticancer activity. The screening process for antineoplastic activity passes through two successive levels, starting with the assessment of target compounds at a single dose of 10 μM against 60 cancer cell lines on nine types of human tumours. These experiments were done on a triplicate following. The output from the single‐dose screening was covered as a mean graph, and then, analysed by the COMPARE program. Finally, the compounds which disclosed subpanel cancer cell growth (G %) equal to or less than 10% in at least eight cancer cell lines get to pass the assessment against the 60 cell lines at five doses (0.01–100 μM). By using GraphPad Prism version 9.0 (Graphpad Software Inc., La Jolla, CA), GI50, TGI, as well as LC50 dose‐response parameters were computed and presented for each compound (Supplementary information)[55–57].

UO-31 = assay: NCI 60 antitumor screening (single dose / five doses); assay type: cell-based; settings: Homo sapiens; UO-31 (renal cancer), single dose 10 μM; read-out: Growth inhibition percentage (GI %)
CCRF-CEM = assay: as above; assay type: cell-based; settings: Homo sapiens; CCRF-CEM (leukaemia), single dose 10 μM; read-out: Growth inhibition percentage (GI %)
HT29 = assay: as above; assay type: cell-based, human; settings: Homo sapiens, HT-29; HT29 (colon cancer), single dose 10 μM; read-out: Growth inhibition percentage (GI %)
K-562 = assay: as above; assay type: cell-based; settings: Homo sapiens, K562; K-562 (leukaemia), single dose 10 μM; read-out: Growth inhibition percentage (GI %)
MDA-MB-435 = assay: as above; assay type: cell-based; settings: Homo sapiens; MDA-MB-435 (melanoma), single dose 10 μM; read-out: Growth inhibition percentage (GI %)
HS 578T = assay: NCI 60 antitumor screening (single dose); assay type: cell-based; settings: Homo sapiens; HS 578T (breast cancer), single dose 10 μM; read-out: Growth inhibition percentage (GI %)
Protocol: as §1, §2

TK-10 = assay: NCI 60 antitumor screening (single dose); assay type: cell-based; settings: Homo sapiens; TK-10 (renal cancer), single dose 10 μM; read-out: Growth inhibition percentage (GI %)
Protocol: as §1, §2

HCT-116 = assay: NCI 60 antitumor screening (single dose / five doses); assay type: cell-based; settings: Homo sapiens; HCT-116 (colon cancer), single dose 10 μM; read-out: Growth inhibition percentage (GI %)
HCT-15 = assay: as above; assay type: cell-based; settings: Homo sapiens; HCT-15 (colon cancer), single dose 10 μM; read-out: Growth inhibition percentage (GI %)
HOP-92 = assay: as above; assay type: cell-based; settings: Homo sapiens; HOP-92 (non-small cell lung cancer), single dose 10 μM; read-out: Growth inhibition percentage (GI %)
SR = assay: as above; assay type: cell-based; settings: Homo sapiens; SR (leukaemia), single dose 10 μM; read-out: Growth inhibition percentage (GI %)

Compound | inhibition at 10 µM (RPMI-8226) [%] | inhibition at 10 µM (SF-539) [%] | inhibition at 10 µM (BT-549) [%] | inhibition at 10 µM (HL-60(TB)) [%] | inhibition at 10 µM (MOLT-4) [%] | inhibition at 10 µM (UACC-62) [%] | inhibition at 10 µM (UACC-257) [%] | inhibition at 10 µM (ACHN) [%] | inhibition at 10 µM (T-47D) [%] | inhibition at 10 µM (MALME-3M) [%] | inhibition at 10 µM (786-0) [%] | inhibition at 10 µM (SNB-75) [%] | inhibition at 10 µM (MDA-MB-231/ATCC) [%] | inhibition at 10 µM (SN 12C) [%] | inhibition at 10 µM (LOX IMVI) [%] | inhibition at 10 µM (NCI/ADR-RES) [%] | Mean GI % [1] [%] | inhibition at 10 µM (UO-31) [%] | inhibition at 10 µM (CCRF-CEM) [%] | inhibition at 10 µM (HT29) [%] | also measured
Brc1ccccc1/C=N/Nc1nc(N/N=C/c2ccccc2Br)nc(N2CCOCC2)n1 [compound 6b, 2,4-Bis[(E)-2-[(2-bromophenyl)methylidene]hydrazin-1-yl]-6-(morpholin-4-yl)-1,3,5-triazine] | 35 | -4.64 | -6.54 | 19.5 | 27.4 | -2.17 | -3.93 | 6.36 | 21 | -42.9 | 38.7 | -31.7 | -3.3 | 1.16 | -2.7 | 8.51 | 7.16 | 21.4 | 19.9 | 26 | inhibition at 10 µM (K-562): 5.94%; inhibition at 10 µM (MDA-MB-435): 2.29%; inhibition at 10 µM (HS 578T): -14.4%; inhibition at 10 µM (TK-10): 0.58%; inhibition at 10 µM (HCT-116): 2.53%; inhibition at 10 µM (HCT-15): 18.9%; inhibition at 10 µM (HOP-92): -12.3%; inhibition at 10 µM (SR): 36.1%
Brc1cccc(/C=N/Nc2nc(N/N=C/c3cccc(Br)c3)nc(N3CCCCC3)n2)c1 [compound 7c, 2,4-Bis[(E)-2-[(3-Bromophenyl)methylidene]hydrazin-1-yl]-6-(piperidin-1-yl)-1,3,5-triazine] | 11.8 | -6.24 | -13.1 | 7.75 | 31.6 | 14.5 | -4.98 | -5.5 | 12.3 | 15.1 | 4.36 | -17.3 | -8.36 | -1.41 | -5.74 | 9.29 | 2.56 | 20.2 | 18.7 | 3.98 | inhibition at 10 µM (K-562): 11.2%; inhibition at 10 µM (MDA-MB-435): 4.57%; inhibition at 10 µM (HS 578T): -21.2%; inhibition at 10 µM (TK-10): -27.6%; inhibition at 10 µM (HCT-116): 13.5%; inhibition at 10 µM (HCT-15): 16.1%; inhibition at 10 µM (HOP-92): -12.8%; inhibition at 10 µM (SR): 12.9%

— publication PMC9848300, “Discovery of novel enasidenib analogues targeting inhibition of mutant isocitrate dehydrogenase 2 as antileukaemic agents” (Journal of Enzyme Inhibition and Medicinal Chemistry, 2023)
